Measurements as given in article PMC5556071, “ATR inhibition facilitates targeting of leukemia dependence on convergent nucleotide biosynthetic pathways” (Nature Communications, 2017).
Where two headings read alike, the source gives them in different places.

Columns and labels:
Type in all cases: cell-based, human
CEM cells [1] = assay: Proliferation assay (CellTiter-Glo, 72 h)
Description: Cells were plated in 384-well plates (1000 cells/well for suspension cell lines and 500 cells/well for adherent cell lines in 30 µl volume). Drugs were serially diluted to the desired concentrations and an equivalent volume of DMSO was added to vehicle control. Ten microliter of the 4× diluted drugs were added to each well. Following 72 h incubation, ATP content was measured using CellTiter-Glo reagent according to manufacturer’s instructions (Promega, CellTiter-Glo Luminescent Cell Viability Assay), and analyzed by SpectraMax luminometer (Molecular Devices). IC50 values, concentrations required to inhibit proliferation by 50% compared to DMSO treated cells, were calculated using Prism 6.0 h (Graphpad Software).

CEM cells [2] = assay: Cell cycle analysis of asynchronous cells by flow cytometry (S-phase population, S-phase arrest); settings: CEM, 24 h
Description: Cell cycle histograms. Cells were plated at a density of 0.5 x 10^6 cells/mL in respective media or drug treated media. Following 24 h incubation, cells were harvested and washed twice with PBS twice before staining with 0.5 ml of propidium iodide (Calbiochem, #P3566, 1 µg/mL) solution containing Ribonuclease A and 0.3% Triton-X 100. The samples were protected from light before acquisition by flow cytometry.
Cell cycle kinetics and cell cycle progression by intracellular detection of DNA-incorporated 5-ethynyl-2-deoxyuridine (EdU). CEM T-ALL cells were plated at a density of 0.5 x 10^6 cells/mL. Cells were pulsed with 10 µM EdU (Invitrogen) for 1 h, washed twice with PBS, and released in fresh media containing 5 µM deoxyribonucleosides, with and without drugs. Cells were collected at different time points following release in fresh media, and then fixed with 4% paraformaldehyde and permeabilized using saponin perm/wash reagent (Invitrogen). Cells were then stained with azide-Alexa Fluor 647 by Click reaction according to manufacturer’s protocol (Invitrogen; Click-iT EdU Flow cytometry kit, #C10634). […]

Jurkat cells = assay: Cell cycle histograms (propidium iodide flow cytometry); settings: dCKi 1 µM, 24 h
Description: Cell cycle histograms. Cells were plated at a density of 0.5 x 10^6 cells/mL in respective media or drug treated
media. Following 24 h incubation, cells were harvested and washed twice with PBS twice before staining with
0.5 ml of propidium iodide (Calbiochem, #P3566, 1 µg/mL) solution containing Ribonuclease A and 0.3%
Triton-X 100. The samples were protected from light before acquisition by flow cytometry. […]

[3] = Suppl. Fig. 5e, BCX-1777 100 nM

Structure (SMILES)	IC50 (CEM cells [1]) [µM]	fold higher concentration than 3-AP required to induce S-phase arrest (CEM cells [2])	other results
NC(=O)NO [HU, hydroxyurea]	74.5	60–100 fold	–
O=c1[nH]cnc2c([C@@H]3N[C@H](CO)[C@@H](O)[C@H]3O)c[nH]c12 [BCX-1777, forodesine]	–	–	cells in G2/M (Jurkat cells; [3]): 1.4%; cells in S phase (Jurkat cells; [3]): 40%
Cc1occc(=O)c1[O-].Cc1occc(=O)c1[O-].Cc1occc(=O)c1[O-].[Ga+3] [GaM, gallium maltolate]	49.8	60–100 fold	–
OC[C@H]1O[C@@H](n2cnc3c2NC=NC[C@H]3O)C[C@@H]1O [dCF, Pentostatin]	–	–	cells in G2/M (Jurkat cells; Suppl. Fig. 4e, dCF 10 µM): 6%; cells in S phase (Jurkat cells; Suppl. Fig. 4e, dCF 10 µM): 11%
Cc1cn([C@H]2C[C@H](O)[C@@H](CO)O2)c(=O)[nH]c1=O [dT, thymidine]	–	60–100 fold	IC50 (CEM cells [1]; Homo sapiens, CCRF-CEM): 159 µM
